This is an account of results in PubChem BioAssay AID1996.

Structures are written as SMILES. ≈ marks a conversion by molar mass, not a printed value.

The solubility (kinetic) is the concentration staying in solution when a stock, usually in DMSO, is diluted into the medium.

The conditions of the data set: buffer; pH 7.4; 200.0 µM.
`CCOC(=O)Cc1cc(=O)[nH]c(/N=C(\N)Nc2ccc(OC)cc2)n1`: the solubility (kinetic) worked out at 6.2 µg/mL (≈ 18 µM).

Regarding `Nc1cc(Cl)ccc1N1CCCCC1`, the solubility (kinetic) worked out at 0.6 µg/mL (≈ 2.85 µM).

On to `Cc1ccc(-c2noc(CCCC(=O)NCC3CCCO3)n2)cc1` (stereo unspecified), for which the solubility (kinetic) was found to be 42.2 µg/mL (≈ 128 µM).

Compound `Cn1cc(C(C[N+](=O)[O-])c2ccccc2)c2ccccc21` (stereo unspecified) gave a kinetic solubility of 2.6 µg/mL (≈ 9.27 µM).

In the case of `CCOc1ccc(Nc2ccc(N3C(=O)CCC3=O)cc2[N+](=O)[O-])cc1`, the solubility (kinetic) was determined as 2.3 µg/mL (≈ 6.47 µM).

The compound `O=S(=O)(NCc1csc(-c2cccs2)n1)c1cccs1` registered a kinetic solubility of 49 µg/mL (≈ 143 µM).

`COc1ccc(/C=C/C(=O)c2cc3c(cc2N)OCO3)cc1`: the kinetic solubility came to 1.6 µg/mL (≈ 5.38 µM).

For `O=C(O/N=C1\CCS(=O)(=O)c2sccc21)C1CC1`, the solubility (kinetic) is above 42.8 µg/mL.

`Cc1ccccc1NC(=O)C[n+]1cc(-c2ccccc2)n2c1CCC2.[Cl-]` registered a solubility (kinetic) above 55.2 µg/mL.

Consider `N#CCCC(CCC#N)C1=NCCc2ccccc21`, for which the kinetic solubility was determined as 36.4 µg/mL (≈ 145 µM).

The compound `CCCCCCCc1c(O)nc(SCC(=O)O)[nH]c1=O` displayed a kinetic solubility of 43.9 µg/mL (≈ 146 µM).

Take `O=C(NC1CCCc2ccccc21)c1ccc(F)cc1F` (stereo unspecified): the solubility (kinetic) came to 10.9 µg/mL (≈ 37.9 µM).

The compound `O=Cc1ccc(-n2cc(C=O)c3ccccc32)cc1` gave a kinetic solubility of 2.4 µg/mL (≈ 9.63 µM).

`OC(CN1CCC(Cc2ccccc2)CC1)c1ccccc1` (stereo unspecified) came in with a kinetic solubility above 44.3 µg/mL.

Compound `Clc1cccc(-c2csc(Nc3cccnc3)n2)c1` came in with a kinetic solubility below 0.2 µg/mL.

Regarding `NC(=O)c1sc2nc3c(cc2c1N)CCCCCC3`, the solubility (kinetic) is 22.3 µg/mL (≈ 81 µM).

As to `O=c1c2ccccc2[nH]c(=S)n1CCCn1ccnc1`, the kinetic solubility was determined as 19.4 µg/mL (≈ 67.7 µM).

On to `CC(C)(C)c1cc(NC(=O)c2cccs2)no1`, for which the solubility (kinetic) is 32.7 µg/mL (≈ 131 µM).

In turn, `CC(=O)c1cccc(NC(=O)NC(C)c2ccc3c(c2)OCO3)c1` (stereo unspecified) yielded a solubility (kinetic) of 6.9 µg/mL (≈ 21.1 µM).

For `Cn1c(Nc2ccc(F)cc2)nc2ccccc21`, the solubility (kinetic) amounted to 28 µg/mL (≈ 116 µM).

`COc1ccc(CNC(=O)c2cc(C(=O)C3CC3)c[nH]2)cc1` gave a solubility (kinetic) of 2 µg/mL (≈ 6.7 µM).

For `Cc1ccc(CNC(=O)CCc2c(C)[nH]c(=O)c(C#N)c2C)cc1`, the kinetic solubility is above 48.5 µg/mL.

Turning to `CN(C)c1nc(N(C)C)nc(N(C#N)Cc2ccc(Cl)cc2)n1`, the solubility (kinetic) amounted to 0.3 µg/mL (≈ 0.904 µM).

In the case of `COc1cccc(-n2c(SCc3ccccn3)nc3c(c2=O)SCC3)c1`, the kinetic solubility was determined as 54.1 µg/mL (≈ 141 µM).

`CN(C)CCNC(=O)Nc1ccc(F)cc1F` yielded a solubility (kinetic) above 36.5 µg/mL.

`COc1cccc(C=O)c1OCCCOc1cccc2cccnc12`: the kinetic solubility was 34.9 µg/mL (≈ 103 µM).

`O=C(NC(=S)N1CCN(c2ccc(O)cc2)CC1)c1ccco1` registered a kinetic solubility above 49.7 µg/mL.

Consider `O=S(=O)(c1ccc(-c2ccon2)s1)N1CCN(c2ccccn2)CC1`, for which the kinetic solubility is 1.1 µg/mL (≈ 2.92 µM).

The compound `C/C(=N\NC(=O)c1ccn(C)n1)c1ccco1` displayed a kinetic solubility above 34.8 µg/mL.

In the case of `Cc1cc(-c2ccccc2)c2ccc(NC(=O)C(C)(C)C)nc2n1`, the solubility (kinetic) came to 0.6 µg/mL (≈ 1.88 µM).

With `COCc1cc(C)nc(NC2CC(C)(C)NC(C)(C)C2)c1C#N`, the solubility (kinetic) was above 47.5 µg/mL.

`COc1ccc(C(=O)COc2ccccc2C(N)=O)cc1` came in with a solubility (kinetic) of 31.6 µg/mL (≈ 111 µM).

As for `CC1(C)C(C(=O)O)N2C(=O)C(NC(=O)Cc3ccccc3)C2S1=O.O` (stereo unspecified), the kinetic solubility was determined as 38.7 µg/mL.

`Nc1cccc(-c2cnc3ccccc3n2)c1` yielded a kinetic solubility above 33.2 µg/mL.

`O=C(Cc1ccccc1)NC(Cc1ccc(Cl)cc1)C(=O)O` (stereo unspecified) displayed a solubility (kinetic) above 47.7 µg/mL.

Compound `Cc1ccccc1NC(=O)C1CC(=O)N(Cc2ccccc2)C1` (stereo unspecified) showed a solubility (kinetic) above 46.3 µg/mL.

`Cc1cc(F)ccc1NC(=O)Nc1ccc2c(c1)OCO2`: the solubility (kinetic) was below 0.3 µg/mL.

`Nc1ccc2nc(-c3ccccc3)c(-c3ccccc3)nc2c1` displayed a kinetic solubility of 25.7 µg/mL (≈ 86.4 µM).

`CC(Sc1nccn1C)C(=O)Nc1ccc(C(N)=O)cc1` (stereo unspecified) came in with a solubility (kinetic) above 45.7 µg/mL.

In turn, `CC(=O)Cn1ncc(N2CCOCC2)c(Br)c1=O` gave a kinetic solubility above 47.4 µg/mL.

As for `COC(=O)C(CO)Nc1ncnc2onc(-c3ccc(F)cc3)c12` (stereo unspecified), the solubility (kinetic) is above 49.8 µg/mL.

In turn, `O=C(CN1CCOCC1)NNC(=O)c1ccc([N+](=O)[O-])cc1` displayed a solubility (kinetic) above 46.2 µg/mL.

The compound `Cc1ccc(CS(=O)(=O)CCC(=O)NCCc2ccccc2)cc1` registered a kinetic solubility of 5.2 µg/mL (≈ 15.1 µM).

`COCCNC(=S)NCCc1ccc(Cl)cc1Cl`: the solubility (kinetic) is above 46.1 µg/mL.

`O=C(Nc1ccc(F)c(Cl)c1)c1cccnc1` registered a kinetic solubility of 24.5 µg/mL (≈ 97.7 µM).

Turning to `CN(C(=O)CSc1ccc2c(c1)OCCO2)c1ccccc1`, the kinetic solubility was above 47.3 µg/mL.

`Oc1ccc2ccccc2c1CNc1ccccn1` had a solubility (kinetic) of 9.4 µg/mL (≈ 37.6 µM).

For `Cc1onc(-c2ccccc2)c1C(=O)N1CCN(c2ccccn2)CC1`, the kinetic solubility is above 52.3 µg/mL.

On to `Cn1c(C(=O)N2CCOCC2)cc2c(=O)n3ccccc3nc21`, for which the kinetic solubility was above 46.8 µg/mL.

With `CNC(=O)NC(=O)COc1ccc2oc3c(c2c1)CCCC3`, the kinetic solubility came out at 2 µg/mL (≈ 6.62 µM).

Compound `COc1ccc(CCN)cc1O.Cl` came in with a kinetic solubility above 30.6 µg/mL.

`O=C(NCc1ccco1)c1nn2cccnc2c1Cl` had a kinetic solubility above 41.5 µg/mL.

`Cc1ccc(Cn2c(N)nc3ccccc32)cc1` yielded a solubility (kinetic) of 23.8 µg/mL (≈ 100 µM).

`CCN1CCN(C(=O)c2c(-c3ccccc3)noc2C)CC1` had a kinetic solubility of 40 µg/mL (≈ 134 µM).

`CC1CC(C)CN(CC(O)COCc2ccccc2F)C1.Cl` (stereo unspecified): the solubility (kinetic) was above 49.8 µg/mL.

In the case of `Cc1ccsc1C(=O)OCC(=O)c1cc(C)n(C)c1C`, the kinetic solubility turned out to be 3.7 µg/mL (≈ 12.7 µM).

The compound `CN=C(C)/C(C(=O)OC)=C(/O)c1c(F)cccc1F` returned a solubility (kinetic) of 25.9 µg/mL (≈ 96.2 µM).

The compound `CCOC(=O)Nc1ccc(C(=O)c2ccncc2)cc1` displayed a kinetic solubility of 4 µg/mL (≈ 14.8 µM).

`O=C(Nc1ccc(F)cc1F)N1CCCCCC1` yielded a kinetic solubility above 38.1 µg/mL.

The compound `FC(F)(F)c1ccccc1CCN1CCNCC1` yielded a solubility (kinetic) of 32.9 µg/mL (≈ 127 µM).

In turn, `CCc1ccccc1NC(=O)NCc1ccccn1` registered a kinetic solubility above 38.3 µg/mL.

With `Cn1c(SCC(=O)NC2CC2)nnc1-c1ccccn1`, the solubility (kinetic) was above 43.4 µg/mL.

In the case of `O=C(COc1ccccc1Cl)Nc1ccc(N2CCCC2)cc1`, the kinetic solubility was below 0.4 µg/mL.

`CC(=O)Nc1ccc(S(=O)(=O)N(C#N)c2nc(C)cc(C)n2)cc1` came in with a kinetic solubility above 51.8 µg/mL.

With `CC(=O)N(Cc1ccccn1)Cc1ccco1`, the solubility (kinetic) is above 34.5 µg/mL.

`COc1cc(CCN)ccc1O.Cl`: the solubility (kinetic) was above 30.6 µg/mL.

For the compound `O=C(NCc1ccccn1)C(=O)Nc1ccccc1`, the kinetic solubility was above 38.3 µg/mL.

Regarding `Cc1ccc(OC(C)C(=O)Nc2ncc(Cl)cc2Cl)c([N+](=O)[O-])n1` (stereo unspecified), the solubility (kinetic) stood at 8.9 µg/mL (≈ 24 µM).

For the compound `S=C(NCC1CCCO1)NC12CC3CC(CC(C3)C1)C2` (stereo unspecified), the kinetic solubility was found to be 4 µg/mL (≈ 13.6 µM).

As to `COC(=O)[C@H](CCSC)NC(=O)Nc1cccc(C)c1C`, the solubility (kinetic) turned out to be 37.1 µg/mL (≈ 120 µM).

`Cc1ccc(NC(=O)c2noc3c2CCC3)cc1C` registered a kinetic solubility of 4.7 µg/mL (≈ 18.3 µM).

For the compound `Cc1ccccc1NC(=O)c1cccc(NC(=O)c2c(C(=O)O)cccc2[N+](=O)[O-])c1`, the solubility (kinetic) was found to be 56.1 µg/mL (≈ 134 µM).

Compound `O=C(NC1CC1)c1sc2ccccc2c1Cl` registered a solubility (kinetic) of 1.6 µg/mL (≈ 6.36 µM).

`COc1cc(C(=O)NCC(c2cccs2)N2CCOCC2)cc(Br)c1OCc1ccccc1` (stereo unspecified) showed a kinetic solubility of 6.3 µg/mL (≈ 11.9 µM).

With `COc1cc(C(=O)COC(=O)c2ccc([N+](=O)[O-])o2)cc(OC)c1OC`, the solubility (kinetic) was above 54.8 µg/mL.

`CN(C(=O)Nc1cnc2ccccc2c1)c1ccccc1` displayed a kinetic solubility above 41.6 µg/mL.
